Reference: patent US20210337789A1, “Derivatives of m-Guaiacol, Their Preparation and Their Uses” (Universite de Caen Normandie, priority 2018, published 2021)

What was measured:
[1] = system: Micrococcus luteus reference strain; assay: Bacterial growth (optical density at 600 nm) on Micrococcus luteus reference strain; type: cell-based; design: key: 0 = no effect, 1 = pure only, 2 = several concentrations, 3 = strong at all; conditions: in DMSO diluted in PBS, compared with triclosan
Description: (§1) The bacterial growth is evaluated by measuring the optical density (DO) at 600 nm using NanoDrop.
(§2) This ratio permits a classification of the molecules in 4 effect levels: • 0=no effect observed; • 1=effect observed only when the molecule is tested pure; • 2=effect observed at several concentrations, but which gradually decreases the dilutions; • 3=strong effect observed at each concentration of molecule tested.
The molecules are put in a solution in DMSO and diluted in PBS.

[2] = system: Streptococcus equi subsp zooepidemicus; assay: Bacterial growth screening on wild-type phenotype strain, S. zooepidemicus; type: cell-based
Description: as §1, §2
(§3) A screening of molecules of the invention on several wild-type phenotype strains has been carried out.
(§4) The strains initially selected are: • Gram+: Streptococcus equi subsp zooepidemicus and Staphylococcus aureus • Gram−: Escherichia coli, Klebsiella pneumoniae and Stenotrophomonas maltophila.

[3] = system: Staphylococcus aureus; assay: Bacterial growth screening on wild-type phenotype strain, S. aureus; type: cell-based
Description: as §1, §2, §3, §4

[4] = system: Escherichia coli; assay: Bacterial growth screening on wild-type phenotype strain, E. coli; type: cell-based
Description: as §1, §2, §3, §4

[5] = system: Klebsiella pneumoniae; assay: Bacterial growth screening on wild-type phenotype strain, K. pneumoniae; type: cell-based
Description: as §1, §2, §3, §4

[6] = system: Stenotrophomonas maltophila; assay: Bacterial growth screening on wild-type phenotype strain, S. maltophila; type: cell-based
Description: as §1, §2, §3, §4

[7] = system: E. coli strains presenting high levels of resistance; assay: Bacterial growth on E. coli strains presenting high levels of resistance; type: cell-based, Escherichia coli; design: key to Effects (0 < 1 < 2 < 3): 0 = no effect; 1 = pure only; 2 = several concs; 3 = strong at each; key to Δ DO: change in optical density measured at 600 nm; conditions: for Effects (0 < 1 < 2 < 3): molecules at 1, 0.5 and 0.1 mg/ml, triclosan at 0.1 mg/ml
Description: as §1, §2
(§5) Compounds of the invention were tested on 4 strains of E. coli, 3 strains of K. pneumoniae and 4 strains of S. aureus with the resistance profiles below.

[8] = system: K. pneumoniae strains presenting high levels of resistance; assay: Bacterial growth on K. pneumoniae strains presenting high levels of resistance; type: cell-based, Klebsiella pneumoniae; design: key to Effects (0 < 1 < 2 < 3): 0 = no effect; 1 = pure only; 2 = several concs; 3 = strong at each; key to Δ DO: change in optical density measured at 600 nm; conditions: for Effects (0 < 1 < 2 < 3): molecules at 1, 0.5 and 0.1 mg/ml, triclosan at 0.1 mg/ml
Description: as §1, §2, §5

[9] = system: S. aureus strains presenting high levels of resistance; assay: Bacterial growth on S. aureus strains presenting high levels of resistance; type: cell-based, Staphylococcus aureus; design: key to Effects (0 < 1 < 2 < 3): 0 = no effect; 1 = pure only; 2 = several concs; 3 = strong at each; key to Δ DO: change in optical density measured at 600 nm; conditions: for Effects (0 < 1 < 2 < 3): molecules at 1, 0.5 and 0.1 mg/ml, triclosan at 0.1 mg/ml
Description: as §1, §2, §5

[10] = system: KB cells (epidermoid carcinoma); assay: In vitro cytotoxicity, cell proliferation test (MTS) on KB cells; type: cell-based; conditions: Homo sapiens, KB cells, triplicate, 72 hours of exposure, with respect to DMSO control, read-out: percentage of inhibition of cell growth
Description: The human cell strain KB (epidermoid carcinoma) was obtained from the NCI (National Cancer Institute) and cultivated in the D-MEM medium added with 10% of foetal bovine serum (Invitrogen) in the presence of penicillin, streptomycin and fungizone in flasks of […] under CO2 at 5%. The cells were deposited on tissue culture microplates with 96 wells and a density of 650 cells/well in 200 μl of medium and treated 24 hours later with compounds of the invention dissolved in DMSO at concentrations going from 0.5 nM to 10 μM using a Biomek 3000 (Beckman-Coulter) automaton. The controls received the same volume of DMSO (1% of final volume). After 72 hours of exposure, the MTS reagent (Celltiter 96Aqueous One solution, Promega) was added and incubated for 3 hours at 37° C.: the absorbance was measured at 490 nm and the results of inhibition of the cell proliferation were calculated according to the ratio [(1−(OD490treated/OD490control))×100].
Results: Cytotoxicity at 10^−5 and 10^−6M on Triplicate KB Cells, Measured after 72 Hours of Exposure.
The percentage of inhibition of cell growth with respect to the cells receiving the same quantity of DMSO is outlined in the table below.

COc1cc(O)c(Cl)c(Br)c1Cl [sr7616]
Effect level [1]: 3
Effect level, S. zooepidemicus [2]: 3
Effect level, S. aureus [3]: 2
Effect level, E. coli [4]: 3
Effect level, K. pneumoniae [5]: 3
Effect level, S. maltophila [6]: 2
Δ DO ([7]; E. coli Strain 1, 0.1 mg/ml): 0.089
Δ DO ([7]; E. coli Strain 1, 0.5 mg/ml): 0.640
Δ DO ([7]; E. coli Strain 1, 1 mg/ml): 0.857
Effects (0 < 1 < 2 < 3) ([7]; E. coli Strain 1): 2
Δ DO ([7]; E. coli Strain 2, 0.1 mg/ml): 0.331
Δ DO ([7]; E. coli Strain 2, 0.5 mg/ml): 0.854
Δ DO ([7]; E. coli Strain 2, 1 mg/ml): 1.069
Effects (0 < 1 < 2 < 3) ([7]; E. coli Strain 2): 3
Δ DO ([7]; E. coli Strain 3, 0.1 mg/ml): 0.141
Δ DO ([7]; E. coli Strain 3, 0.5 mg/ml): 0.679
Δ DO ([7]; E. coli Strain 3, 1 mg/ml): 0.825
Effects (0 < 1 < 2 < 3) ([7]; E. coli Strain 3): 3
Δ DO ([7]; E. coli Strain 4, 0.1 mg/ml): 0.308
Δ DO ([7]; E. coli Strain 4, 0.5 mg/ml): 0.868
Δ DO ([7]; E. coli Strain 4, 1 mg/ml): 0.853
Effects (0 < 1 < 2 < 3) ([7]; E. coli Strain 4): 3
Δ DO ([8]; K. pneumoniae Strain 1, 0.1 mg/ml): 0.236
Δ DO ([8]; K. pneumoniae Strain 1, 0.5 mg/ml): 0.594
Δ DO ([8]; K. pneumoniae Strain 1, 1 mg/ml): 0.646
Effects (0 < 1 < 2 < 3) ([8]; K. pneumoniae Strain 1): 3
Δ DO ([8]; K. pneumoniae Strain 2, 0.1 mg/ml): 0.151
Δ DO ([8]; K. pneumoniae Strain 2, 0.5 mg/ml): 0.641
Δ DO ([8]; K. pneumoniae Strain 2, 1 mg/ml): 0.686
Effects (0 < 1 < 2 < 3) ([8]; K. pneumoniae Strain 2): 2
Δ DO ([8]; K. pneumoniae Strain 3, 0.1 mg/ml): 0.213
Δ DO ([8]; K. pneumoniae Strain 3, 0.5 mg/ml): 0.652
Δ DO ([8]; K. pneumoniae Strain 3, 1 mg/ml): 0.847
Effects (0 < 1 < 2 < 3) ([8]; K. pneumoniae Strain 3): 2
Δ DO ([9]; S. aureus Strain 1, 0.1 mg/ml): 0.276
Δ DO ([9]; S. aureus Strain 1, 0.5 mg/ml): 0.443
Δ DO ([9]; S. aureus Strain 1, 1 mg/ml): 0.445
Effects (0 < 1 < 2 < 3) ([9]; S. aureus Strain 1): 3
Δ DO ([9]; S. aureus Strain 2, 0.1 mg/ml): 0.303
Δ DO ([9]; S. aureus Strain 2, 0.5 mg/ml): 0.458
Δ DO ([9]; S. aureus Strain 2, 1 mg/ml): 0.459
Effects (0 < 1 < 2 < 3) ([9]; S. aureus Strain 2): 3
Δ DO ([9]; S. aureus Strain 3, 0.1 mg/ml): 0.299
Δ DO ([9]; S. aureus Strain 3, 0.5 mg/ml): 0.529
Δ DO ([9]; S. aureus Strain 3, 1 mg/ml): 0.525
Effects (0 < 1 < 2 < 3) ([9]; S. aureus Strain 3): 3
Δ DO ([9]; S. aureus Strain 4, 0.1 mg/ml): 0.291
Δ DO ([9]; S. aureus Strain 4, 0.5 mg/ml): 0.491
Δ DO ([9]; S. aureus Strain 4, 1 mg/ml): 0.491
Effects (0 < 1 < 2 < 3) ([9]; S. aureus Strain 4): 3
inhibition at 10 µM ([10]; 10^−5 M): 0%
inhibition at 1 µM ([10]; 10^−6 M): 0%
